# Laboratory results: patent US7238685B2, “Benzo-fused heterocycles as endothelin antagonists” (Actelion Pharmaceuticals Ltd., priority 2001, dated 2007)
# Read-outs that look alike come from different tables or passages of the source.
# Experiments:
# [1] = biological target: T1, human recombinant ETA receptors (Homo sapiens, UniProt P25101); experiment: Inhibition of endothelin binding to membranes from CHO cells carrying human ET receptors (ETA); conditions: read-out: IC50 ETA
# T1 construct: expressed in transfected cells; host or cells: CHO cells (microsomal membranes)
# T1 sequence (P25101 21-427): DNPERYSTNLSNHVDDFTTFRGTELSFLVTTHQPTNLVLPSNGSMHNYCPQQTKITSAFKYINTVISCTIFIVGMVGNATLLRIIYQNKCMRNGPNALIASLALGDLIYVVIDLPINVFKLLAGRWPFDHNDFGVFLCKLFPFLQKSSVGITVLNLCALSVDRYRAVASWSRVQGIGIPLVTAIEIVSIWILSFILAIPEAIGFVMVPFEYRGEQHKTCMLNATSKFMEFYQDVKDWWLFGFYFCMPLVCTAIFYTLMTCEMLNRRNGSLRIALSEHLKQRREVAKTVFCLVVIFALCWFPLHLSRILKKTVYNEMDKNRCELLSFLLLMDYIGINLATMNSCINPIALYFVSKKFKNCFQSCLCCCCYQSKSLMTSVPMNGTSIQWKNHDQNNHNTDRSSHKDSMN
# [2] = biological target: T2, human recombinant ETB receptors (Homo sapiens, UniProt P24530); experiment: Inhibition of endothelin binding to membranes from CHO cells carrying human ET receptors (ETB); conditions: read-out: IC50 ETB
# T2 construct: expressed in transfected cells; host or cells: CHO cells (microsomal membranes)
# T2 sequence (P24530 27-442): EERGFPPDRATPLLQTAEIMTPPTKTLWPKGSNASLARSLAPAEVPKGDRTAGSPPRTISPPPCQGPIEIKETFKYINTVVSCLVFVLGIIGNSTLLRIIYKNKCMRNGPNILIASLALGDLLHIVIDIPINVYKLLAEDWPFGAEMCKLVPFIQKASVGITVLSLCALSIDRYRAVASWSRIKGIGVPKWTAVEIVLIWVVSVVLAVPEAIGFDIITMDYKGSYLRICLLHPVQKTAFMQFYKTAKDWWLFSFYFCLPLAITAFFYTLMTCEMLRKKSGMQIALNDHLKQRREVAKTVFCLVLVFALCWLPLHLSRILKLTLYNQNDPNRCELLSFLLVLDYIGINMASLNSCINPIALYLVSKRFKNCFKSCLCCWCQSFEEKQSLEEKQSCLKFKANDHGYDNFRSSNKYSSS
# [3] = biological target: T3, rat aortic rings (ETA receptors) (Rattus norvegicus, UniProt P26684); experiment: Inhibition of endothelin-1-induced contractions on isolated rat aortic rings
# T3 construct: from tissue; host or cells: thoracic aorta rings of adult Wistar rats, endothelium removed
# T3 sequence (P26684 21-426): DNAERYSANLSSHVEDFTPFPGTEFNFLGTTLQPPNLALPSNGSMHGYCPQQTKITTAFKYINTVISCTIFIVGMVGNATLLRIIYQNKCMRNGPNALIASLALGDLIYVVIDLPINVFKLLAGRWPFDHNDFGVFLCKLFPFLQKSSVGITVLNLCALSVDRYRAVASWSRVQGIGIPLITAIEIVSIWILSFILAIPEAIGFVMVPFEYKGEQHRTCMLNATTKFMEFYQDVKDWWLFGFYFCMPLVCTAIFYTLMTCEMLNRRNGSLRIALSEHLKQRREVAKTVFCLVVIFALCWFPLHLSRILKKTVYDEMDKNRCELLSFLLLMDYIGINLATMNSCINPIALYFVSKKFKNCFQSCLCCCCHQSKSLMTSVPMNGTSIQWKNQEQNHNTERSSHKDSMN
# [4] = biological target: T4, rat tracheal rings (ETB receptors) (Rattus norvegicus, UniProt P21451); experiment: Inhibition of sarafotoxin S6c-induced contractions on isolated rat tracheal rings
# T4 construct: from tissue; host or cells: tracheal rings of adult Wistar rats, epithelium removed
# T4 sequence (P21451 27-442): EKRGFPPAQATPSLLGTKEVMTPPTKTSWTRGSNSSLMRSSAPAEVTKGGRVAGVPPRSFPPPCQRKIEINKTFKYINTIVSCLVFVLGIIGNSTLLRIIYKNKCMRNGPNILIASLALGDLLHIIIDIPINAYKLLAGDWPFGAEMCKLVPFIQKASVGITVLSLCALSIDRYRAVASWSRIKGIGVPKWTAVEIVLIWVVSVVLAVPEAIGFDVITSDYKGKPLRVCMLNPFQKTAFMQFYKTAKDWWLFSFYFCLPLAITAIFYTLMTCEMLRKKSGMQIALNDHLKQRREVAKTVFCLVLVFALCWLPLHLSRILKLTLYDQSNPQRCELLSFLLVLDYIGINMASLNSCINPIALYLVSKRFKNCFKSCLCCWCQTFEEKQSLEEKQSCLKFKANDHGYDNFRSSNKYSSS
# Description: 2) Inhibition of Endothelin-induced Contractions on Isolated Rat Aortic Rings (ETA Receptors) and Rat Tracheal Rings (ETB Receptors):
# The functional inhibitory potency of the endothelin antagonists was assessed by their inhibition of the contraction induced by endothelin-1 on rat aortic rings (ETA receptors) and of the contraction induced by sarafotoxin S6c on rat tracheal rings (ETB receptors). Adult Wistar rats were anesthetized and exsanguinated. The thoracic aorta or trachea were excised, dissected and cut in 3–5 mm rings. The endothelium/epithelium was removed by gentle rubbing of the intimal surface. Each ring was suspended in a 10 ml isolated organ bath filled with Krebs-Henseleit solution (in mM; NaCl 115, KCl 4.7, MgSO4 1.2, KH2PO4 1.5, NaHCO3 25, CaCl2 2.5, glucose 10) kept at 37° C. and gassed with 95% O2 and 5% CO2. The rings were connected to force transducers and isometric tension was recorded (EMKA Technologies SA, Paris, France). The rings were stretched to a resting tension of 3 g (aorta) or 2 g (trachea). […] The functional inhibitory potency of the test compound was assessed by calculating the concentration ratio, i.e. the shift to the right of the EC50 induced by different concentrations of test compound. EC50 is the concentration of endothelin needed to get a half-maximal contraction, pA2 is the negative logarithm of the antagonist concentration which induces a two-fold shift in the EC50 value.
SMILES,IC50 [1] [nM],IC50 [2] [nM],Kb [3] [nM],Kb [4] [nM],Kb ([3]; read-out: pA2 (aortic rings) (converted)) [nM]
"Cc1cc(C)nc(O[C@H](C(=O)O)[C@@]2(c3cccc(-c4ccccc4)c3)NCC(=O)N(Cc3c(F)cc(F)cc3F)c3ccccc32)n1 (racemic) [Example 211, (±)-(S*)-[(5S*)-5-biphenyl-3-yl-2-oxo-1-(2,4,6-trifluoro-benzyl)-2,3,4,5-tetrahydro-1H-benzo[e][1,4]di-azepin-5-yl]-(4,6-dimethyl-pyrimidin-2-yloxy)-acetic acid]",6,62,0.912,85.1,
"Cc1cc(C)nc(O[C@H](C(=O)O)[C@@]2(c3ccccc3)NCC(=O)N(Cc3c(F)cc(F)cc3F)c3ccccc32)n1 (racemic) [Example 107, (±)-(S*)-(4,6-dimethyl-pyrimidin-2-yloxy)-[(5S*)-2-oxo-5-phenyl-1-(2,4,6-trifluoro-benzyl)-2,3,4,5-tetrahydro-1H-benzo[e][1,4]diazepin-5-yl]-acetic acid]",1,42,6.61,661,
COc1cc(OC)nc(O[C@H](C(=O)O)[C@@]2(c3ccccc3)NCC(=O)N(Cc3c(F)cc(F)cc3F)c3ccccc32)n1 (racemic) [Example 48],,,,525,6.46
Cc1cc(C)nc(O[C@H](C(=O)O)[C@@]2(c3ccccc3)NCC(=O)N(Cc3c(Cl)cccc3Cl)c3ccccc32)n1 (racemic) [Example 115],1,3,2.82,27.5,
